Measured values published in BindingDB's records for patent US8822500 (Chembridge, 2014).

Target: ALK tyrosine kinase receptor (Homo sapiens, UniProt Q9UM73)
Experiment: In Vitro Kinase Activity Assay
Conditions: pH 7.5

Chain of ALK tyrosine kinase receptor (Q9UM73 whole entry): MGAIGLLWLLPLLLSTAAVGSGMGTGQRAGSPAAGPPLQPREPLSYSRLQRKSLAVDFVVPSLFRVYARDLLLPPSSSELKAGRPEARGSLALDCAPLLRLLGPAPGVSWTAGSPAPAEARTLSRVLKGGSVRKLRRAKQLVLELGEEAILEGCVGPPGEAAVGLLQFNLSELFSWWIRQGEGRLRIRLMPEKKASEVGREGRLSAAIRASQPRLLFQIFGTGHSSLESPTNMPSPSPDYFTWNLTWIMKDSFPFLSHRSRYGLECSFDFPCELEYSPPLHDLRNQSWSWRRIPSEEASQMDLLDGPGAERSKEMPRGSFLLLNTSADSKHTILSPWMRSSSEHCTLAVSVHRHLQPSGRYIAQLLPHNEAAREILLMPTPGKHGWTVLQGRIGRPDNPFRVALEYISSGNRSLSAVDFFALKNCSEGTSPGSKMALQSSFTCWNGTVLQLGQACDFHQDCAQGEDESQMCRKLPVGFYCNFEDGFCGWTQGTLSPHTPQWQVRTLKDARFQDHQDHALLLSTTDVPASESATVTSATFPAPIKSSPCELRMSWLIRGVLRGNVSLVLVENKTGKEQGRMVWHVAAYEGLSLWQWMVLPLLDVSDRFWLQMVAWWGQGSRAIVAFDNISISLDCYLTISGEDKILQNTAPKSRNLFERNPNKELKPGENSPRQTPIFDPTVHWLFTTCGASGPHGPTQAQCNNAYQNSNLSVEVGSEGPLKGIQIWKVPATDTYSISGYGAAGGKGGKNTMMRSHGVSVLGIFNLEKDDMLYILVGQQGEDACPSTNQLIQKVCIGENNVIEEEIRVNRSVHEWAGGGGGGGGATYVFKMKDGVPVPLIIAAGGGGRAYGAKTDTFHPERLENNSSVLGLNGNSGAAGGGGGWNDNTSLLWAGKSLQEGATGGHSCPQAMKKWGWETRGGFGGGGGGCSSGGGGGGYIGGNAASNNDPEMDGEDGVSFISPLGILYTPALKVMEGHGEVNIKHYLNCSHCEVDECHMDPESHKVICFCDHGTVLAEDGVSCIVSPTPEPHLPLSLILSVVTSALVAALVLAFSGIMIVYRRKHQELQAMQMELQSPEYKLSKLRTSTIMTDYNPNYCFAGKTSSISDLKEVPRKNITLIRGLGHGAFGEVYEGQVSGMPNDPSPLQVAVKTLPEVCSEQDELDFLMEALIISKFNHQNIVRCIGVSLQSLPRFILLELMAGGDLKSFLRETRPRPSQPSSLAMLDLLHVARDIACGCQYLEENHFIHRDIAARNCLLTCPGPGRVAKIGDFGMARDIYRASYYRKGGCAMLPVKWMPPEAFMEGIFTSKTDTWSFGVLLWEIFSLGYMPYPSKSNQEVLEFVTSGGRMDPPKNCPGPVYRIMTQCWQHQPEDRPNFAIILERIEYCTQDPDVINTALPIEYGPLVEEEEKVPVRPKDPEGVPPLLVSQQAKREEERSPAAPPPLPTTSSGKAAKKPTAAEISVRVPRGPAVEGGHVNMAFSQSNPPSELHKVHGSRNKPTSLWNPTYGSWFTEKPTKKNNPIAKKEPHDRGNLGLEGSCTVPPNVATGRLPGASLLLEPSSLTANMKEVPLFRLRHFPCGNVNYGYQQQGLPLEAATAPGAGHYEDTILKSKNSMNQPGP

## CC(Cc1cc(F)ccc1F)Nc1cc[nH]c(=O)c1-c1nc2cc3c(cc2[nH]1)C(=O)N(C1CCN(C)CC1)C3=O (stereo unspecified) [US8822500, [28]]
  IC50: 15.1 nM
